{
  "source": "patent US20240335547A1",
  "about": "“MODIFIED CHOLIC ACID CONJUGATES” (priority 2022, published 2024)",
  "key": {"in vitro": {"experiment": "in vitro", "details": "human"}, "human coronavirus 229E": {"test_system": "human coronavirus 229E", "experiment": "Therapeutic activity against human coronavirus 229E in HFF cells", "assay_type": "cell-based", "details": "Human coronavirus 229E, HFF; added 24 hours post infection, cells cultured for two weeks, cell viability; read-out: EC50", "protocol": "(1) HFF cells (5×104) were seeded with 1 ml of DMEM media supplemented with 10% FBS in each well of four 24-well tissue culture plates. (2) Cell were cultured for 3 days until HFF cells in each well attained 90% confluency (media was changed 1 day before infection). 10 μl of the 10-time diluted original solution of coronavirus, about 1×10^5 PFU were added into each well. Infection was allowed to proceed overnight. (3) The media was changed 24 hours post infection. CSA-44 was added to test their anti-viral effects. Ten different concentrations of the drug were tested. They were 15 μg/ml, 10 μg/ml, 9 μg/ml, 8 μg/ml, 7 μg/ml, 6 μg/ml, 5 μg/ml, 4 μg/ml, 3 μg/ml, and 2 μg/ml with 0 μg/ml as the control. Each concentration has 12 wells for test. Cells were cultured for two weeks, and cell viability was quantified. CSA-44 was effective in inhibiting viral replication and growth. The values of EC50 (where EC is the concentration of the active that gives 50% of the maximal response) of CSA-44 is identified as 4 μg/ml.\n(1) HFF cells (5×104) were seeded with 1 ml of DMEM media supplemented with 10% FBS in each well of four 24-well tissue culture plates. (2) Cells were cultured for 3 days until HFF cells in each well attained 90% confluency (media was changed 1 day before infection). Ten μl of the 10-time diluted original solution of coronavirus, about 1×10^5 PFU, were added into each well. Infection was allowed to proceed overnight. (3) The media was changed 24 hours post infection. Different concentrations of CSA-44 were added to test their anti-viral effects. Each concentration has 12 wells for test. Cells were cultured in the presence of CSA-44 for […] and cell viability was quantified.\n(1) HFF cells (5×104) were seeded with 1 ml of DMEM media supplemented with 10% FBS in each well of four 24-well tissue culture plates. (2) Cells were cultured for 3 days until HFF cells in each well attained 90% confluency (media was changed 1 day before infection). […] Cells were cultured for two weeks, and cell viability was quantified. […]"}, "[1]": {"target": "3CL Protease (SARS-COV-2) (Severe acute respiratory syndrome coronavirus 2, UniProt P0DTD1)", "experiment": "3CL Protease (SARS-COV-2) Inhibitor Assay", "assay_type": "biochemical", "protocol": "The compound is dissolved in DMSO. A series of dilutions were prepared with 5% DMSO in 3CL Protease assay buffer. 10 μl of the dilution was added to a 50 μl reaction so that the final concentration of DMSO is 1% in all of the reactions. The compound was pre-incubated in duplicate at room temperature for 30 minutes in a mixture containing 3CL Pro assay buffer, 3CL enzyme and a test compound. After 30 minutes, the enzymatic reactions were initiated by the addition of 3CL Protease substrate. The enzymatic reaction proceeded for 4 hours at room temperature. Fluorescence intensity was measured at an excitation of 360 nm and an emission of 460 nm using a Tecan Infinite M1000 microplate reader."}, "Calu-3 cells": {"test_system": "Calu-3 cells", "experiment": "Cytotoxicity Assay (MTS)", "assay_type": "cell-based", "details": "24 h", "protocol": "Calu-3 cells were seeded in 96-well plates one day prior to testing. At 80-90% confluency, growth medium was removed and replaced with a medium containing 50 μg/mL of compound 12 dilutions. All treatments were added in quadruplicate or quintuplicate wells. Plates were incubated for 24 h before being washed and replaced with fresh untreated growth medium. MTS was added to each well as recommended by the manufacturer's protocol (CellTiter 96 Aqueous One Solution Cell Proliferation Assay, Promega, Madison, WI, USA) and incubated for 3-4 h.\nAfter incubation, absorbance was measured at 490 nm on a SpectraMax M5 (Molecular Devices, LLC, San Jose, CA, USA) plate reader with SoftMax Pro 6.2.1 software."}, "TNF-α": {"test_system": "TNF-α", "experiment": "TNF-α production in HEK293 Cells", "assay_type": "cell-based", "details": "5 μg/ml", "from_the_text": "It was confirmed that Compound 12 stimulates TNF-α production in HEK293 Cells."}, "[2]": {"test_system": "Golgi apparatus, mitochondria, and endoplasmic reticulum (ER)", "assay_type": "cell-based, human", "from_the_text": "The effect of compound 12 was studied on cellular structures and organelles such as Golgi apparatus, mitochondria, and endoplasmic reticulum (ER)."}},
  "data": [
    {"smiles": "C[C@H](CCC(=O)NCCNC(=O)CCCC[C@@H]1SCC2NC(=O)NC21)C1CCC2C3C(C[C@H](OC(=O)CCN)[C@@]21C)[C@@]1(C)CC[C@@H](OC(=O)CCN)CC1C[C@H]3OC(=O)CCN", "note": "(stereo partly drawn) [Compound 12]", "values": [
      {"measurement": "CC50 at 3 days", "setting": "in vitro", "result": "> 200", "unit": "µM"},
      {"measurement": "EC50", "setting": "human coronavirus 229E", "result": 3, "unit": "µg/mL"},
      {"measurement": "IC50", "setting": "[1]", "result": "> 10", "unit": "µM"},
      {"measurement": "% Activity", "setting": "[1]; 0.0003 μM, 2 repeats", "result": 101, "unit": "%"},
      {"measurement": "activity at 0.0003 µM", "setting": "[1]; 0.0003 μM, 2 repeats", "result": 99, "unit": "%"},
      {"measurement": "activity at 0.001 µM", "setting": "[1]; 0.001 μM, 2 repeats", "result": 103, "unit": "%"},
      {"measurement": "activity at 0.003 µM", "setting": "[1]; 0.003 μM, 2 repeats", "result": 103, "unit": "%"},
      {"measurement": "% Activity", "setting": "[1]; 0.01 μM, 2 repeats", "result": 100, "unit": "%"},
      {"measurement": "activity at 0.01 µM", "setting": "[1]; 0.01 μM, 2 repeats", "result": 96, "unit": "%"},
      {"measurement": "activity at 0.03 µM", "setting": "[1]; 0.03 μM, 2 repeats", "result": 95, "unit": "%"},
      {"measurement": "% Activity", "setting": "[1]; 0.1 μM, 2 repeats", "result": 89, "unit": "%"},
      {"measurement": "activity at 0.1 µM", "setting": "[1]; 0.1 μM, 2 repeats", "result": 90, "unit": "%"},
      {"measurement": "% Activity", "setting": "[1]; 0.3 μM, 2 repeats", "result": 88, "unit": "%"},
      {"measurement": "activity at 0.3 µM", "setting": "[1]; 0.3 μM, 2 repeats", "result": 91, "unit": "%"},
      {"measurement": "% Activity", "setting": "[1]; 1 μM, 2 repeats", "result": 89, "unit": "%"},
      {"measurement": "activity at 1 µM", "setting": "[1]; 1 μM, 2 repeats", "result": 90, "unit": "%"},
      {"measurement": "% Activity", "setting": "[1]; 3 μM, 2 repeats", "result": 79, "unit": "%"},
      {"measurement": "activity at 3 µM", "setting": "[1]; 3 μM, 2 repeats", "result": 82, "unit": "%"},
      {"measurement": "inhibition at 10 µM", "setting": "[1]; 10 μM", "result": 24, "unit": "%"},
      {"measurement": "% Activity", "setting": "[1]; 10 μM, 2 repeats", "result": 77, "unit": "%"},
      {"measurement": "activity at 10 µM", "setting": "[1]; 10 μM, 2 repeats", "result": 75, "unit": "%"},
      {"measurement": "IC50 (i.e., CC50)", "setting": "Calu-3 cells", "result": 154, "unit": "µM"},
      {"measurement": "TNF-α generated", "setting": "TNF-α", "result": "7,123 pg/ml"},
      {"measurement": "effect on overall structure and organization of cellular structures and organelles", "setting": "[2]", "result": "did not affect the overall structure and organization"}
    ]}
  ]
}
